Here are results for 23 compounds from US9822124B2, “Bicyclic heteroaromatic carboxamide compounds useful as Pim kinase inhibitors” (Incyte Corporation, priority 2014, dated 2017).

Usually IC50 stands for the concentration that gives 50% inhibition.

Format in all cases: biochemical
In one assay the target is Pim-2 (Homo sapiens (Human), UniProt Q9P1W9). The assay is described as follows: Pim-2 kinase assay (TR-FRET, Fluorescein-labeled CREBtide peptide substrate). The settings on record: 1 mM ATP; read-out: Pim2 IC50. The essentials:
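Human Pim-2 (1 nM) phosphorylated 0.05 μM fluorescein-CREBtide with 1 mM ATP for 2 h at 25 °C in Tris buffer pH 7.5 containing MgCl2, DTT, BSA and Tween-20. Reactions were stopped with EDTA and Tb-anti-pSer133 antibody was added, and TR-FRET was read after 30 min.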
A general note: Time-resolved FRET reads energy transfer from a long-lived donor to a nearby acceptor.

A further assay concerns the target Pim-3 (Homo sapiens (Human), UniProt Q86V86). Nature of the assay: Pim-3 kinase assay (AlphaScreen, Biotin-labeled BAD peptide substrate). The settings on record: 1 mM ATP; read-out: Pim3 IC50. The essentials: (§1)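 Kinase reactions ran 1 h at 25° C, pH 7.5, with 0.05 μM biotin-BAD peptide, 1 mM ATP, and 2.5 μM Pim-1 or 1.25 μM Pim-3. EDTA stop buffer carried anti-phospho-Bad (Ser112) antibody plus streptavidin donor and Protein-A acceptor beads. AlphaScreen signal was read after 1 h in the dark.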
Background: Bead proximity is the source of the signal in Alpha formats.

In a further assay the target is Pim-1 (Homo sapiens (Human), UniProt P11309). The assay is described as follows: Pim-1 kinase assay (AlphaScreen, Biotin-labeled BAD peptide substrate). The settings on record: 1 mM ATP; read-out: Pim1 IC50. Put shortly: as §1
Pim-1, sequence (P11309 whole entry): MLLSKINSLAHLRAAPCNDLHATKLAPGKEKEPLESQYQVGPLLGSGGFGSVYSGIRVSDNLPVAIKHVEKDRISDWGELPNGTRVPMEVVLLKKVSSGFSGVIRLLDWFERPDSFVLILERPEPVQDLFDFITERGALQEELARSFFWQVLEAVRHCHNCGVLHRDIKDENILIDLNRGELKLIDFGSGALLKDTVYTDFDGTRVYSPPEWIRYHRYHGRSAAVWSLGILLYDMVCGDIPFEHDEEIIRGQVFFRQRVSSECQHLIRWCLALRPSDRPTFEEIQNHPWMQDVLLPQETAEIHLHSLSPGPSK

Pim-2, sequence (Q9P1W9 whole entry): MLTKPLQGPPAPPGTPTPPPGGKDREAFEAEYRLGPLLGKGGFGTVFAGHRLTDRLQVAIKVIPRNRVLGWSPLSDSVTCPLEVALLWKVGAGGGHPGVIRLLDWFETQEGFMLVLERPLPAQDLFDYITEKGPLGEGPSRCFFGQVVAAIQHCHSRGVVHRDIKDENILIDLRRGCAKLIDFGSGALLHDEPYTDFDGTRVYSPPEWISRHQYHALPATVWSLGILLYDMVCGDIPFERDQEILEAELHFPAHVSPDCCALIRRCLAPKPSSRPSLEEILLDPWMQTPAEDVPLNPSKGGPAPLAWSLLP

In the case of `C[C@@H]1C[C@H](N)CN(c2ccncc2NC(=O)c2ccc3sc(-c4ccccc4F)cc3n2)C1` [Example 53, N-(4-((3S,5R)-3-Amino-5-methylpiperidin-1-yl)pyridin-3-yl)-2-(2-fluorophenyl)thieno[3,2-b]pyridine-5-carboxamide], the IC50 is 100 to 1000 nM at Pim-2, ≤ 10 nM on Pim-3 and ≤ 10 nM at Pim-1.

As for `COc1cc(F)c(-c2cc3nc(C(=O)Nc4cnccc4N4C[C@@H](N)[C@H](O)[C@@H](C)C4)ccc3s2)c(F)c1` [Example 45, N-(4-((3R,4R,5S)-3-Amino-4-hydroxy-5-methylpiperidin-1-yl)pyridin-3-yl)-2-(2,6-difluoro-4-methoxyphenyl)thieno[3,2-b]pyridine-5-carboxamide], the IC50 was 100 to 1000 nM on Pim-2, ≤ 10 nM at Pim-3 and ≤ 10 nM at Pim-1.

Consider `CCc1csc2ccc(C(=O)Nc3cnccc3N3CCC[C@H](N)C3)nc12` [Example 66, N-{4-[(3S)-3-Aminopiperidin-1-yl]pyridin-3-yl}-3-ethylthieno[3,2-b]pyridine-5-carboxamide], for which the IC50 at Pim-2 is 100 to 1000 nM; on Pim-3, ≤ 10 nM; on Pim-1 it was ≤ 10 nM.

In the case of `CCc1coc2ccc(C(=O)Nc3cnccc3N3C[C@H](C)C[C@H](N)C3)nc12` [Example 20, N-(4-((3S,5R)-3-Amino-5-methylpiperidin-1-yl)pyridin-3-yl)-3-ethylfuro[3,2-b]pyridine-5-carboxamide], the IC50 at Pim-2 is ≤ 100 nM; on Pim-3, ≤ 10 nM; at Pim-1, ≤ 10 nM.

Turning to `CCCc1cc2nc(C(=O)Nc3cnccc3N3C[C@@H](N)[C@H](O)[C@@H](C)C3)ccc2s1` [Example 38, N-(4-((3R,4R,5S)-3-Amino-4-hydroxy-5-methylpiperidin-1-yl)pyridin-3-yl)-2-propylthieno[3,2-b]pyridine-5-carboxamide], the IC50 was 100 to 1000 nM on Pim-2, ≤ 10 nM on Pim-3 and ≤ 10 nM at Pim-1.

Regarding `C[C@H]1CN(c2ccncc2NC(=O)c2ccc3occ(C4CC4)c3n2)C[C@@H](N)[C@@H]1O` [Example 34, N-(4-((3R,4R,5S)-3-Amino-4-hydroxy-5-methylpiperidin-1-yl)pyridin-3-yl)-3-cyclopropylfuro[3,2-b]pyridine-5-carboxamide], the results for the IC50 on Pim-2, at Pim-3 and on Pim-1 were ≤ 100 nM, ≤ 10 nM and ≤ 10 nM, respectively.

In the case of `C[C@@H]1C[C@H](N)CN(c2ccncc2NC(=O)c2ccc3sc(-c4ccc(N5CCOCC5)nc4)cc3n2)C1` [Example 56, N-(4-((3S,5R)-3-Amino-5-methylpiperidin-1-yl)pyridin-3-yl)-2-(6-morpholinopyridin-3-yl)thieno[3,2-b]pyridine-5-carboxamide], the values for the IC50 on Pim-2, on Pim-3 and at Pim-1 were 100 to 1000 nM, ≤ 10 nM and ≤ 10 nM, respectively.

With `C[C@@H]1C[C@H](N)CN(c2ccncc2NC(=O)c2ccc3oc(-c4c(F)cccc4F)cc3n2)C1` [Example 4, N-(4-((3S,5R)-3-Amino-5-methylpiperidin-1-yl)pyridin-3-yl)-2-(2,6-difluorophenyl)furo[3,2-b]pyridine-5-carboxamide], the results for the IC50 at Pim-2, at Pim-3 and at Pim-1 were > 2000 nM, 10 to 50 nM and ≤ 10 nM, respectively.

Turning to `CCCc1cc2nc(C(=O)Nc3cnccc3N3C[C@H](C)C[C@H](N)C3)ccc2o1` [Example 1, N-(4-((3S,5R)-3-Amino-5-methylpiperidin-1-yl)pyridin-3-yl)-2-propylfuro[3,2-b]pyridine-5-carboxamide], the IC50 at Pim-2 was 100 to 1000 nM; on Pim-3, ≤ 10 nM; on Pim-1, ≤ 10 nM.

On to `C[C@H]1CN(c2ccncc2NC(=O)c2ccc3oc(-c4ccc(N5CCOCC5)nc4)cc3n2)C[C@@H](N)[C@@H]1O` [Example 9, N-(4-((3R,4R,5S)-3-Amino-4-hydroxy-5-methylpiperidin-1-yl)pyridin-3-yl)-2-(6-morpholinopyridin-3-yl)furo[3,2-b]pyridine-5-carboxamide], for which the values for the IC50 at Pim-2, on Pim-3 and at Pim-1 were 1000 to 10000 nM, ≤ 10 nM and ≤ 10 nM, respectively.

Regarding `C[C@H]1CN(c2ccncc2NC(=O)c2ccc3cc([C@@H]4C[C@H]4c4ccccc4)oc3n2)C[C@@H](N)[C@@H]1O` [Example 71, N-(4-((3R,4R,5S)-3-Amino-4-hydroxy-5-methylpiperidin-1-yl)pyridin-3-yl)-2-((1R,2R)-2-phenylcyclopropyl)furo[2,3-b]pyridine-6-carboxamide], the IC50 on Pim-2 was ≤ 100 nM; at Pim-3, ≤ 10 nM; on Pim-1 it was ≤ 10 nM.

Consider `CC(C)c1cc2nc(C(=O)Nc3cnccc3N3C[C@@H](N)[C@H](O)[C@@H](C)C3)ccc2o1` [Example 6, N-{4-[(3R,4R,5S)-3-Amino-4-hydroxy-5-methylpiperidin-1-yl]pyridin-3-yl}-2-isopropylfuro[3,2-b]pyridine-5-carboxamide], for which the IC50 was 100 to 1000 nM at Pim-2, ≤ 10 nM at Pim-3 and 10 to 50 nM at Pim-1.

On to `C[C@@H]1C[C@H](N)CN(c2ccncc2NC(=O)c2ccc3occ(C4CCOCC4)c3n2)C1` [Example 25, N-(4-((3S,5R)-3-Amino-5-methylpiperidin-1-yl)pyridin-3-yl)-3-(tetrahydro-2H-pyran-4-yl)furo[3,2-b]pyridine-5-carboxamide], for which the values for the IC50 at Pim-2, at Pim-3 and on Pim-1 were 100 to 1000 nM, ≤ 10 nM and ≤ 10 nM, respectively.

For the compound `C[C@H]1CN(c2ccncc2NC(=O)c2ccc3cc(C4CC4)oc3n2)C[C@@H](N)[C@@H]1O` [Example 69, N-{4-[(3R,4R,5S)-3-Amino-4-hydroxy-5-methylpiperidin-1-yl]pyridin-3-yl}-2-cyclopropylfuro[2,3-b]pyridine-6-carboxamide], the IC50 is ≤ 100 nM at Pim-2, ≤ 10 nM on Pim-3 and ≤ 10 nM at Pim-1.

Take `CC(C)c1cnn2ccc(C(=O)Nc3cnccc3[C@@H]3C[C@H](C)C[C@H](N)C3)nc12` [Example 82, N-{4-[(1R,3S,5S)-3-Amino-5-methylcyclohexyl]pyridin-3-yl}-3-isopropylpyrazolo[1,5-a]pyrimidine-5-carboxamide]: the IC50 at Pim-2 is 1000 to 10000 nM; on Pim-3, 10 to 50 nM; on Pim-1, ≤ 10 nM.

On to `CC(C)c1cc2nc(C(=O)Nc3cnccc3N3C[C@H](C)C[C@H](N)C3)ccc2s1` [Example 51, N-(4-((3S,5R)-3-Amino-5-methylpiperidin-1-yl)pyridin-3-yl)-2-isopropylthieno[3,2-b]pyridine-5-carboxamide], for which the half-maximal inhibitory concentration (IC50) at Pim-2 is ≤ 100 nM; at Pim-3, ≤ 10 nM; on Pim-1, ≤ 10 nM.

Regarding `C[C@H]1CN(c2ccncc2NC(=O)c2ccc3sc(-c4ccccc4)cc3n2)C[C@@H](N)[C@@H]1O` [Example 46, N-(4-((3R,4R,5S)-3-Amino-4-hydroxy-5-methylpiperidin-1-yl)pyridin-3-yl)-2-phenylthieno[3,2-b]pyridine-5-carboxamide], the IC50 on Pim-2 was 100 to 1000 nM; at Pim-3 it was ≤ 10 nM; on Pim-1, ≤ 10 nM.

In the case of `C[C@H]1CN(c2ccncc2NC(=O)c2ccc3occ(C4CCN(C)CC4)c3n2)C[C@@H](N)[C@@H]1O` [Example 16, N-(4-((3R,4R,5S)-3-Amino-4-hydroxy-5-methylpiperidin-1-yl)pyridin-3-yl)-3-(1-methylpiperidin-4-yl)furo[3,2-b]pyridine-5-carboxamide], the IC50 on Pim-2 was > 2000 nM; at Pim-3, > 40 nM; on Pim-1, 10 to 50 nM.

As for `C[C@H]1CN(c2ccncc2NC(=O)c2ccc3sc(-c4ccccc4F)cc3n2)C[C@@H](N)[C@@H]1O` [Example 41, N-(4-((3R,4R,5S)-3-Amino-4-hydroxy-5-methylpiperidin-1-yl)pyridin-3-yl)-2-(2-fluorophenyl)thieno[3,2-b]pyridine-5-carboxamide], the IC50 at Pim-2 was 100 to 1000 nM; at Pim-3, ≤ 10 nM; on Pim-1, ≤ 10 nM.

In the case of `C[C@H]1CN(c2ccncc2NC(=O)c2ccc3sc(-c4cnn(C)c4)cc3n2)C[C@@H](N)[C@@H]1O` [Example 48, N-(4-((3R,4R,5S)-3-Amino-4-hydroxy-5-methylpiperidin-1-yl)pyridin-3-yl)-2-(1-methyl-1H-pyrazol-4-yl)thieno[3,2-b]pyridine-5-carboxamide], the IC50 is ≤ 100 nM at Pim-2, ≤ 10 nM on Pim-3 and ≤ 10 nM at Pim-1.

Consider `C[C@@H]1C[C@H](N)C[C@H](c2ccncc2NC(=O)c2ccn3ncc(-c4c(F)cccc4F)c3n2)C1` [Example 83, N-{4-[(1R,3S,5S)-3-Amino-5-methylcyclohexyl]pyridin-3-yl}-3-(2,6-difluorophenyl)pyrazolo[1,5-a]pyrimidine-5-carboxamide], for which the IC50 is 100 to 1000 nM at Pim-2, ≤ 10 nM on Pim-3 and ≤ 10 nM at Pim-1.

For `C[C@@H]1C[C@H](N)CN(c2ccncc2NC(=O)c2ccc3occ(C4CC4)c3n2)C1` [Example 35, N-(4-((3S,5R)-3-Amino-5-methylpiperidin-1-yl)pyridin-3-yl)-3-cyclopropylfuro[3,2-b]pyridine-5-carboxamide], the IC50 on Pim-2 was ≤ 100 nM; on Pim-3, ≤ 10 nM; at Pim-1, ≤ 10 nM.

`C[C@H]1CN(c2ccncc2NC(=O)c2ccc3sc(Cc4ccccc4)cc3n2)C[C@@H](N)[C@@H]1O` [Example 42, N-(4-((3R,4R,5S)-3-Amino-4-hydroxy-5-methylpiperidin-1-yl)pyridin-3-yl)-2-benzylthieno[3,2-b]pyridine-5-carboxamide]: the values for the IC50 at Pim-2, on Pim-3 and on Pim-1 were 100 to 1000 nM, ≤ 10 nM and ≤ 10 nM, respectively.
